ChEMBL document CHEMBL4808176, “Optimization of Truncated Glucagon Peptides to Achieve Selective, High Potency, Full Antagonists” (J Med Chem, 2021)
Values belong to the molecule of their own block, whether it stands above or below them. Active and inactive are the calls of the source. No cut-off for these calls is given here.

Tests used:
Glucagon receptor [1] = molecular target: T1, Glucagon receptor (Homo sapiens, UniProt P47871); assay: Displacement of 125I-glucagon from human GCGR expressed in HEK293 cells membranes incubated for 6 hrs by liquid scintillation counting method; assay type: cell membranes, Membrane
[2] = molecular target: Glucagon receptor (Rattus norvegicus) (UniProt P30082); assay: Displacement of 125I-glucagon from GCGR of rat liver membrane; assay type: cell membranes
[3] = molecular target: T2, Gastric inhibitory polypeptide receptor (Mus musculus) (UniProt Q0P543); assay: Antagonist activity at mouse GIPR expressed in CHO-K1 cells assessed as inhibition of GIP-induced cAMP production relative to control; assay type: cell-based; details: concentration not given here
T2 sequence (whole entry): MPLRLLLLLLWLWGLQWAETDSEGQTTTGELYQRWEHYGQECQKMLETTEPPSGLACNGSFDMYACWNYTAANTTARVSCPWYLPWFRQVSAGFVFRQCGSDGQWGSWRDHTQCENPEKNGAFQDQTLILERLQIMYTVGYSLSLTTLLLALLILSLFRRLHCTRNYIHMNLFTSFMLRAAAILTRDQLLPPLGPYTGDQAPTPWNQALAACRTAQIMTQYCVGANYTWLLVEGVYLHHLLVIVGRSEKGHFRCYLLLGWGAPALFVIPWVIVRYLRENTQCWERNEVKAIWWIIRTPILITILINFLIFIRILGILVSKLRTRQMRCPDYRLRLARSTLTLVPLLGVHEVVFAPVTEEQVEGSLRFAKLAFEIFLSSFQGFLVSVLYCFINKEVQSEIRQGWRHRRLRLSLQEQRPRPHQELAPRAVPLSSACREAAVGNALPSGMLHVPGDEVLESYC

[4] = AUC in C57BL/6 mouse at 1500 nmol/kg, sc measured upto 240 mins by LC-MS analysis; assay type: ADME, organism-based; design: route subcutaneous, dose 1500 nmol/kg, time <=240; details: in vivo
Mus musculus = assay: Inhibition of IUB288-induced glucose elevation in C57BL/6 mouse at 1500 nmol/kg, sc pretreated for 15 mins followed by IUB288 stimulation and measured upto 120 mins; assay type: functional, organism-based; details: time 135.0 min
[5] = Cmax in C57BL/6 mouse at 1500 nmol/kg, sc measured upto 240 mins by LC-MS analysis; assay type: ADME, organism-based; design: route subcutaneous, dose 1500 nmol/kg, time <=240; details: in vivo
[6] = molecular target: T3, Gastric inhibitory polypeptide receptor (Homo sapiens, UniProt P48546); assay: Antagonist activity at human GIPR expressed in HEK293 cells assessed as inhibition of GIP-induced cAMP production; assay type: functional, cell-based
T3 sequence (P48546 whole entry): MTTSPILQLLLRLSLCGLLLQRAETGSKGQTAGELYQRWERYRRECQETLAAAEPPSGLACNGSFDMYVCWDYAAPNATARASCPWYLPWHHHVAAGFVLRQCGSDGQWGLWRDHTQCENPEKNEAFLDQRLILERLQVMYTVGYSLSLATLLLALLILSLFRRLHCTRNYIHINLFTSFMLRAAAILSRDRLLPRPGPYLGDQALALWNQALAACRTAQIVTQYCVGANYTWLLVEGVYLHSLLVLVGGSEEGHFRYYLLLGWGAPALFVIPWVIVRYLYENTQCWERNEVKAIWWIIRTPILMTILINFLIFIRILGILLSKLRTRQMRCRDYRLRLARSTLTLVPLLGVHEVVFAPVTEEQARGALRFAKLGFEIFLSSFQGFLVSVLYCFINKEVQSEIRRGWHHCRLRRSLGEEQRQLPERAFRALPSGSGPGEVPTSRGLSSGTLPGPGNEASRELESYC

Glucagon receptor [7] = molecular target: T1, Glucagon receptor; assay: Antagonist activity at human GCGR expressed in HEK293 cells assessed as inhibition of glucogon-induced cAMP production relative to control; assay type: functional, cell-based; details: filed as antagonist, concentration not given here
[8] = Aqueous solubility of the compound at pH 8 by LC-MS analysis; assay type: physicochemical; details: buffer
[9] = molecular target: Glucagon receptor (Mus musculus) (UniProt Q61606); assay: Antagonist activity at mouse GCGR expressed in CHO-K1 cells assessed as inhibition of glucogon-induced cAMP production relative to control; assay type: functional, cell-based; details: filed as antagonist, concentration not given here
[10] = molecular target: T4, Glucagon-like peptide 1 receptor (Mus musculus, UniProt O35659); assay: Antagonist activity at mouse GLP1R expressed in CHO-K1 cells assessed as inhibition of GLP1-induced cAMP production; assay type: functional, cell-based
T4 sequence (O35659 whole entry): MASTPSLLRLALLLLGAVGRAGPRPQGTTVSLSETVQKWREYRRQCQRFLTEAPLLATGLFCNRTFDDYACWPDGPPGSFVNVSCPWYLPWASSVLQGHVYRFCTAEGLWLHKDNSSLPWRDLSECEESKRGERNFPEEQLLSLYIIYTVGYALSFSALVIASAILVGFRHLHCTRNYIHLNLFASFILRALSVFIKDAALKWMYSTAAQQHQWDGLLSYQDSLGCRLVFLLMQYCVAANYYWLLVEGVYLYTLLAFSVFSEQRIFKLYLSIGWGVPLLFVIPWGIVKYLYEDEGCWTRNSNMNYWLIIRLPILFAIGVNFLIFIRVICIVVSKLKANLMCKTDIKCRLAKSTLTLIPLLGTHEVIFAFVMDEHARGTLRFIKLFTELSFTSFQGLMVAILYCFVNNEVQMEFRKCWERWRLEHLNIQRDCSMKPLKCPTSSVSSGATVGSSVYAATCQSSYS

[11] = Toxicity in C57BL/6 mouse assessed as adverse local and systemic responses at 1500 nmol/kg, sc; details: in vivo
Glucagon receptor [12] = molecular target: T1, Glucagon receptor; assay: Antagonist activity at human GCGR expressed in HEK293 cells assessed as inhibition of glucogon-induced cAMP production; assay type: functional, cell-based
[13] = Half life in C57BL/6 mouse at 1500 nmol/kg, sc measured upto 240 mins by LC-MS analysis; assay type: ADME, organism-based; details: in vivo
[14] = molecular target: T5, Glucagon-like peptide 1 receptor (Mus musculus) (UniProt O35659); assay: Antagonist activity at mouse GLP1R expressed in CHO-K1 cells assessed as inhibition of GLP1-induced cAMP production relative to control; assay type: functional, cell-based; details: concentration not given here
T5 sequence (whole entry): T4 sequence (O35659 whole entry)

[15] = molecular target: T6, Gastric inhibitory polypeptide receptor (Mus musculus, UniProt Q0P543); assay: Antagonist activity at mouse GIPR expressed in CHO-K1 cells assessed as inhibition of GIP-induced cAMP production; assay type: cell-based
T6 sequence (Q0P543 whole entry): T2 sequence (whole entry)

[16] = Chemical stability of compound in PBS buffer incubated for 5 to 7 days by LC-MS analysis; assay type: physicochemical; details: time 5-7 day
[17] = molecular target: Glucagon-like peptide 1 receptor (Homo sapiens, UniProt P43220); assay: Antagonist activity at human GLP-1R expressed in HEK293 cells assessed as inhibition of GLP1-induced cAMP production; assay type: functional, cell-based
[18] = molecular target: T7, Gastric inhibitory polypeptide receptor (Homo sapiens) (UniProt P48546); assay: Antagonist activity at human GIPR expressed in HEK293 cells assessed as inhibition of GIP-induced cAMP production relative to control; assay type: functional, cell-based; details: concentration not given here
T7 sequence (whole entry): T3 sequence (P48546 whole entry)

Glucagon receptor [19] = molecular target: Glucagon receptor (Mus musculus, UniProt Q61606); assay: Antagonist activity at mouse GCGR expressed in CHO-K1 cells assessed as inhibition of glucogon-induced cAMP production; assay type: functional, cell-based
Glucagon receptor [20] = molecular target: T1, Glucagon receptor; assay: Partial antagonist activity at human GCGR expressed in HEK293 cells assessed as inhibition of glucogon-induced cAMP production; assay type: functional, cell-based; details: filed as antagonist
Glucagon receptor [21] = molecular target: T1, Glucagon receptor; assay: Antagonist activity at human GCGR expressed in HEK293 cells assessed as inhibition of glucogon-induced cAMP production by schild plot analysis; assay type: functional, cell-based; details: dose 0.1-1.6 µM

T1 sequence (P47871 whole entry): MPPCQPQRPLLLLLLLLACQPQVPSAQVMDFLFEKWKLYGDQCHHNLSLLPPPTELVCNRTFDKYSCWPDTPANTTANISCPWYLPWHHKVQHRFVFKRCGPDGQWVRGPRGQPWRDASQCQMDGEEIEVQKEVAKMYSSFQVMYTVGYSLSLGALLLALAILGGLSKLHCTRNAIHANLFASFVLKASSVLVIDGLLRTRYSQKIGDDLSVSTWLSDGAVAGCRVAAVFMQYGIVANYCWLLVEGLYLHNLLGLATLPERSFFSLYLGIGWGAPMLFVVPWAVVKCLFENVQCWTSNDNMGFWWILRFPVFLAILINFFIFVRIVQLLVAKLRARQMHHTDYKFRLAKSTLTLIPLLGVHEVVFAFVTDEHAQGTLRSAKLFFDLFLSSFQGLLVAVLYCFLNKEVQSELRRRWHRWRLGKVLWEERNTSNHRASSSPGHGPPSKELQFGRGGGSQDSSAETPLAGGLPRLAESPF
Sequence of Glucagon receptor (Rattus norvegicus) (P30082 whole entry): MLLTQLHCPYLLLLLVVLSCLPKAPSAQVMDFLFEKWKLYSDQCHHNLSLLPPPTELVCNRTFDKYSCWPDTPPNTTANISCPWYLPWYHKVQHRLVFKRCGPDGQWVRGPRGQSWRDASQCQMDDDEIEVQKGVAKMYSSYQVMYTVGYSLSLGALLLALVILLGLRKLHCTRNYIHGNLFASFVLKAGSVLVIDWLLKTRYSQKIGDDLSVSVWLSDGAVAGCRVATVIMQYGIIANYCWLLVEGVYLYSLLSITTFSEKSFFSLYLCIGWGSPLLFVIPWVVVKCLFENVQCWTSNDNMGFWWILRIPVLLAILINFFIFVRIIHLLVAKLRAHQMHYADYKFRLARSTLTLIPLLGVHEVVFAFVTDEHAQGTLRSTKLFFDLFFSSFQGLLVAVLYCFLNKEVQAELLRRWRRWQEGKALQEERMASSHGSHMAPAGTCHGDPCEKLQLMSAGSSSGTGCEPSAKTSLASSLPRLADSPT
Sequence of Glucagon-like peptide 1 receptor (Homo sapiens, UniProt P43220) (P43220 whole entry): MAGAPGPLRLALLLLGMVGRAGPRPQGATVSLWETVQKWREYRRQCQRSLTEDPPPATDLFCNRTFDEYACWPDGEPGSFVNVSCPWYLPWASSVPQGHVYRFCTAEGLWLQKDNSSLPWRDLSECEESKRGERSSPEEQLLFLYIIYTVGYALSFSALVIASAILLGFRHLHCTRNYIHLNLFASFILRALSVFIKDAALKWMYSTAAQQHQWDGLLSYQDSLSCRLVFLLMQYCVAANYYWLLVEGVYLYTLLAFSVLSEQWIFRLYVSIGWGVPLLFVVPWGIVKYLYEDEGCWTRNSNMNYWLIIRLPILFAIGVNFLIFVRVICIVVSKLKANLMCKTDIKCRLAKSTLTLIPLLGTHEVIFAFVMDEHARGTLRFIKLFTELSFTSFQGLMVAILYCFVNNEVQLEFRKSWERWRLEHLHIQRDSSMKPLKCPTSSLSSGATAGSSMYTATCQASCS
Sequence of Glucagon receptor (Mus musculus, UniProt Q61606) (Q61606 whole entry): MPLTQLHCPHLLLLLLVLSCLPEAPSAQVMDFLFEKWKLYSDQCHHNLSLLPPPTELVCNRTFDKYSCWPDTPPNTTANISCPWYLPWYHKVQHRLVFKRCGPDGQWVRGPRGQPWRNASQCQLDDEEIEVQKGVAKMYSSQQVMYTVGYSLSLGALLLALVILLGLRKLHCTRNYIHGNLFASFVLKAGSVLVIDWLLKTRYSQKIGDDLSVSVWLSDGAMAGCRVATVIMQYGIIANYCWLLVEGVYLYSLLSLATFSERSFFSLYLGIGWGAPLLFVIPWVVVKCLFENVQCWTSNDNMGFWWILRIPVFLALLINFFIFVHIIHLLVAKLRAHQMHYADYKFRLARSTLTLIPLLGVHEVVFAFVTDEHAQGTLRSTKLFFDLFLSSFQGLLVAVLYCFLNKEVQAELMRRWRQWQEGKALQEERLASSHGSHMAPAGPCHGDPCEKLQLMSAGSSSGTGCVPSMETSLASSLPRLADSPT
Sequence of Glucagon receptor (Mus musculus) (Q61606 whole entry): as above

- IC50 (Glucagon receptor [1]): 10000 nM
- Activity [2]: 0.33%
Molecule: H-TSEYSKYLDSRRAQDFVQWLMNT-NH2

Molecule: CSCC[C@H](NC(=O)[C@H](CC(C)C)NC(=O)[C@H](Cc1c[nH]c2ccccc12)NC(=O)[C@H](CCC(N)=O)NC(=O)[C@@H](NC(=O)[C@H](Cc1ccccc1)NC(=O)[C@H](CC(=O)O)NC(=O)[C@H](CCC(N)=O)NC(=O)[C@H](C)NC(=O)[C@H](CCCNC(=N)N)NC(=O)[C@H](CCCNC(=N)N)NC(=O)[C@H](CO)NC(=O)[C@H](CC(=O)O)NC(=O)[C@H](CC(C)C)NC(=O)[C@H](Cc1ccc(O)cc1)NC(=O)[C@H](CCCCN)NC(=O)[C@H](CO)NC(=O)[C@H](Cc1ccc(O)cc1)NC(=O)[C@H](CC(=O)O)NC(=O)[C@H](CO)NC(=O)[C@@H](NC(=O)[C@@H](O)Cc1ccccc1)[C@@H](C)O)C(C)C)C(=O)N[C@@H](CC(=O)O)C(=O)N[C@H](C(N)=O)[C@@H](C)O
- inhibition [3]: 10%
- AUC at 4 h [4]: 0.209 µM·h
- inhibition (Mus musculus): Active
- Cmax [5]: 261 nM
- IC50 [6]: > 1000 nM
- inhibition (Glucagon receptor [7]): 99%
- solubility [8]: > 500 µM
- inhibition [9]: 92%
- IC50 [10]: > 1000 nM
- Activity [11]: Non-Toxic
- IC50 (Glucagon receptor [12]): 12.1 nM
- half-life [13]: 30.7 min
- inhibition [14]: 1%
- IC50 [15]: > 1000 nM
- Stabilty [16]: Stable
- IC50 [17]: > 1000 nM
- inhibition [18]: 20%
- IC50 (Glucagon receptor [19]): 23.1 nM

- Activity (Glucagon receptor [20]): Active
- Activity (Glucagon receptor [21]): inactive
- Activity ([2]; filed as antagonist): 41%
Molecule: CSCC[C@H](NC(=O)[C@H](CC(C)C)NC(=O)[C@H](Cc1c[nH]c2ccccc12)NC(=O)[C@H](CCC(N)=O)NC(=O)[C@@H](NC(=O)[C@H](Cc1ccccc1)NC(=O)[C@H](CC(=O)O)NC(=O)[C@H](CCC(N)=O)NC(=O)[C@H](C)NC(=O)[C@H](CCCN=C(N)N)NC(=O)[C@H](CCCN=C(N)N)NC(=O)[C@H](CO)NC(=O)[C@H](CC(=O)O)NC(=O)[C@H](CC(C)C)NC(=O)[C@H](Cc1ccc(O)cc1)NC(=O)[C@H](CCCCN)NC(=O)[C@H](CO)NC(=O)[C@H](Cc1ccc(O)cc1)NC(=O)[C@H](CCC(=O)O)NC(=O)[C@H](CO)NC(=O)[C@@H](NC(=O)[C@H](Cc1ccccc1)NC(=O)[C@@H](NC(=O)CNC(=O)[C@H](CCC(N)=O)NC(=O)[C@@H](N)CO)[C@@H](C)O)[C@@H](C)O)C(C)C)C(=O)N[C@@H](CC(N)=O)C(=O)N[C@H](C(N)=O)[C@@H](C)O
